Patent US12410209B2, “Modified glucocorticoids” (Board of Regents, The University of Texas System, priority 2021, dated 2025)

Tests used:
Format in all cases: cell-based, human
IL-1β mRNA = test: qPCR analysis of LPS-induced IL-1β mRNA; conditions: HaCat cells, LPS-induced inflammation, FIG. 5
Source text: qPCR analysis is shown FIG. 5.

Met4 cells = test: MTT assay for cell viability; conditions: cancerous Met4 cells, range of concentrations, FIG. 2
PM1 cells = test: MTT assay for cell viability; conditions: cancerous PM-1 cells, range of concentrations, FIG. 2
HaCaT cells = test: MTT assay for cell viability; conditions: for sensitivity of cells to glucocorticoid treatment (cell proliferation): normal HaCaT cells compared to cancerous PM1 and Met4 cells

Row | SMILES | LPS-induced increase of inflammatory cytokine IL-1β (IL-1β mRNA) | potency against cell proliferation compared with cortisol (Met4 cells) | potency against cell proliferation compared with cortisol (PM1 cells) | sensitivity of cells to glucocorticoid treatment (cell proliferation) (HaCaT cells) | potency against cell proliferation compared with cortisol (HaCaT cells; normal HaCaT cells, range of concentrations, FIG. 2)
1 | C[C@]12CCC(=O)C=C1CC[C@@H]1[C@@H]2[C@@H](F)C[C@@]2(C)[C@H]1CC[C@]2(O)C(=O)CO [F-MOD, 11-deoxyfluorocortisol] | significantly suppressed | at least as powerful as the original cortisol | at least as powerful as the original cortisol if not stronger | more sensitive | at least as powerful as the original cortisol
2 | C[C@]12CCC(=O)C=C1CC[C@@H]1[C@@H]2[C@@H](O)C[C@@]2(C)[C@H]1CC[C@]2(O)C(=O)CO [cortisol, reference compound] | significantly suppressed |  |  | more sensitive | 
